Values quoted from earlier work in patent US8293290B2, “Annatto extract compositions, including geranyl geraniols and methods of use” (American River Nutrition, Inc., priority 2003, dated 2012).

Assays:
[1] = exogenous oral supplementation
prostate cancer patients = settings: after one year of CoQ10 supplementation
PPARα = target: T1, PPARα (Homo sapiens, UniProt Q07869); settings: at the hepatocytes
T1 construct: host or cells: HepG2 hepatocytes (from the cited title only)
T1 sequence (Q07869 1-468): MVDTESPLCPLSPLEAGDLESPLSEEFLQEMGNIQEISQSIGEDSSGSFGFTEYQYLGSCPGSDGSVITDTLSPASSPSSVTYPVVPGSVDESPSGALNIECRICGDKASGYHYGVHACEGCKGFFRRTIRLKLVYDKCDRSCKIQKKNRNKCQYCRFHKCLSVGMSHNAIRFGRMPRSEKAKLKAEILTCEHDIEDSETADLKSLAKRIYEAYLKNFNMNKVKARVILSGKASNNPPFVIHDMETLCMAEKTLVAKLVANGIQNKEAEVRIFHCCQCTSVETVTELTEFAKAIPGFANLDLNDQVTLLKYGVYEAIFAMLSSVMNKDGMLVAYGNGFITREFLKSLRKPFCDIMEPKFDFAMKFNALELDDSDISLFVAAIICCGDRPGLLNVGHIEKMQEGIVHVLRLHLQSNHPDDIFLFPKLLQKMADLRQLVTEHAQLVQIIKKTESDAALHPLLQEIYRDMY

[2] = tested on: untransformed cells or normal cells
PPARγ = target: T2, PPARγ (Mus musculus, UniProt P37238); settings: at the adipocytes
T2 construct: host or cells: 3T3-L1 adipocytes (from the cited title only)
T2 sequence (P37238 1-505): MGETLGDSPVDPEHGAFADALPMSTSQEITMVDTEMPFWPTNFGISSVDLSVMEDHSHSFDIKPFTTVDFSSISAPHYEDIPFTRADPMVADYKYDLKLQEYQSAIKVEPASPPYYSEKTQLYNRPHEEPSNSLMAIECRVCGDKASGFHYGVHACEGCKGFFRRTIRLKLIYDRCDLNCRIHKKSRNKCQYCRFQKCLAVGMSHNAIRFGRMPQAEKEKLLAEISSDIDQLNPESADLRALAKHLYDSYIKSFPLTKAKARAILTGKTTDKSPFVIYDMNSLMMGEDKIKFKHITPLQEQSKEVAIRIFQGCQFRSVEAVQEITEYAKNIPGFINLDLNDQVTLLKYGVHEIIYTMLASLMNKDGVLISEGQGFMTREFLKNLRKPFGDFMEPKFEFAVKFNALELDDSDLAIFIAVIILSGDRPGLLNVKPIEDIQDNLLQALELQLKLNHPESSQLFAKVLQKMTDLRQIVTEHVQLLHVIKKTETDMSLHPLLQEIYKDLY

| fraction of supplemental CoQ10 absorbed [1] | PPARα activation (PPARα) | inhibition of cytochrome P450 enzymes (incl. CYP3A4) (cytochrome P450 enzymes) | PPARγ activation (PPARγ) | SMILES | decrease of prostate mass (prostate cancer patients) [%] | decrease of prostate specific antigen (PSA) (prostate cancer patients) [%] | cytotoxicity (cell rounding, indicator of myotoxicity) [2] | toxicity to untransformed cells or normal cells [2] |
| --- | --- | --- | --- | --- | --- | --- | --- | --- |
| less than 5% | – | – | – | COC1=C(OC)C(=O)C(C/C=C(\C)CC/C=C(\C)CC/C=C(\C)CC/C=C(\C)CC/C=C(\C)CC/C=C(\C)CC/C=C(\C)CC/C=C(\C)CC/C=C(\C)CCC=C(C)C)=C(C)C1=O [CoQ10, coenzyme Q10] | 47 | 71 | – | – |
| – | activates | does not inhibit | activates | CC(C)=CCC/C(C)=C/CC/C(C)=C/CC/C(C)=C/CO [GG, Geranyl geraniol] | – | – | not cytotoxic | not toxic |
